Like-named read-outs stand apart in the source and are kept apart here.
Legend:
[1] = Radiochemical purity after standing at room temperature (reversed-phase TLC); type: physicochemical
Procedure: A indium [^111In] chloride solution (80 MBq, 100 μL) was added to a mixture of the compound A (8.5 μg) and a 0.2 mol/L sodium acetate buffer solution (pH 4.0) (1.5 mL). The solution was heated to 100° C. for 15 minutes and then left to stand for 5 minutes at room temperature, thereby obtaining [^111In]-(compound A). […] The radiochemical purity measured immediately after the compound was prepared and measured after 24 hours at room temperature was equal to or higher than 95%.
A yttrium [^90Y] chloride solution (700 MBq, 240 μL) was added to a mixture of the compound (79 μg), gentisic acid (1.8 mg), a 0.6 mol/L sodium acetate buffer solution (pH 4.0, 120 μL), and 0.4 mol/L aqueous sodium hydroxide solution (24 μL). The solution was heated to 100° C. for 20 minutes and then left to stand for 5 minutes at room temperature, thereby obtaining [90^Y]-(compound A). […] The radiochemical purity measured immediately after the compound was prepared and measured after 24 hours at room temperature was equal to or higher than 95%.
A copper [^64Cu] chloride solution (pH 5, 35 MBq, 55 μL) was added to a mixture of the compound A (5.8 μg) and 0.2 mol/L sodium acetate buffer solution (pH 4.0, 219 μL). The solution was heated to 100° C. for 15 minutes and left to stand for 5 minute at room temperature, thereby obtaining [^64Cu]-(compound A). […] The radiochemical purity measured immediately after the compound was prepared and measured after 22 hours at room temperature was equal to or higher than 90%.
A 0.2 mol/L sodium acetate buffer solution of Copper [^64Cu] chloride (pH 4.0) (40 MBq, 155 μL) was added to a mixture of the compound B (4.2 μg), gentisic acid (1 mg), and a 0.2 mol/L sodium acetate buffer solution (pH 4.0) (5.0 μL). The solution was heated to 100° C. for 15 minutes and left to stand for 5 minutes at room temperature, thereby obtaining [^64Cu]-(compound B). […] The radiochemical purity measured immediately after the compound was prepared and measured after 24 hours at room temperature was equal to or higher than 90%.
(§1) A gallium [^67Ga] chloride solution (200 MBq, 63 μL) was added to a mixed solution of the compound A (21 μg), gentisic acid (1.0 mg), a 0.2 mol/L sodium acetate buffer solution (pH 4.0, 730.7 μL), and 4.5 mol/L aqueous sodium hydroxide solution (6.3 μL). The solution was heated to 100° C. for 15 minutes and then left to stand for 5 minutes at room temperature, thereby obtaining [^67Ga]-(compound A).
A lutetium [^177Lu] chloride solution (666 MBq, 333 μL) dissolved in a 0.2 mol/L sodium acetate buffer solution (pH 4.0) was added to a mixed solution of the compound A (70.0 μg), gentisic acid (1.8 mg), and a 0.2 mol/L sodium acetate buffer solution (pH 4.0, 83.3 μL). The solution was heated to 100° C. for 15 minutes and then left to stand for 5 minutes at room temperature, thereby obtaining [^177Lu]-(compound A).
as §1, with “(40” for “(200”, “11.7” for “63”, “B (4.1” for “A (21”, “4.5, 147.13” for “4.0, 730.7”, “(1.17” for “(6.3”, “B).” for “A).”

[2] = tested on: U87MG cells; assay: Radioactivity concentration of labeled compounds in tumor, U87MG subcutaneous transplantation; type: in vivo, mice (Balb/c AJcl-nu/nu); settings: caudal vein, 111In 740 kBq, 64Cu and 90Y 500 kBq
Procedure: Test Example 3 Evaluation based on radioactivity concentration of ^111In-labeled compound, ^64Cu-labeled compound, and ^90Y-labeled compound in tumor
After 2 to 3 weeks, at a point in time when the tumor volume became 200 to 500 mm^3, 3 mice were sorted into one group at each point in time. The ^111In-labeled compound (740 k Bq) was administered into the caudal vein, the animals were sacrificed after a certain period of time, and the tumor was extracted. The weight of the tumor was measured, the radioactivity was measured using a gamma counter, and the radioactivity concentration in tumor (% ID/g) was calculated. For the ^64Cu-labeled compound (500 k Bq) and the ^90Y-labeled compound (500 k Bq), the radioactivity concentration in tumor (% ID/g) was calculated by the same method.

[3] = tested on: U87MG cells; settings: 1 time; for Number of animals showing regression: 8 animals; for Inhibition rate: 16 days after administration; for Tumor volume 16 days after administration / Tumor volume At the beginning of administration: Mean ± SD
Procedure: Test Example 7 Therapeutic Test on U87MG Subcutaneous Transplantation Model Using [^90Y]-(Compound A)
1×10^7 U87MG cells were transplanted into the subcutaneous space of the right flank of Balb/c Slc-nu/nu (males, 6-week-old, Japan SLC. Inc). After 2 weeks, the mice with a tumor having a volume of 100 to 500 mm^3 were grouped. A phosphate buffered saline (PBS) or [^90Y]-(compound A) was administered into the caudal vein, and the tumor volume was measured. At a point in time when the tumor volume of the mice of the PBS group exceeded 2,000 mm^3 which is a humane endpoint, the antitumor activity was evaluated.

[4] = Absorbed dose in a human being simulated with OLINDA/EXM 1.0 from monkey organ distribution
Procedure: (§2) Blood was collected from a crab-eating macaque over time, and by using [^111In]-(compound A), from the radioactivity concentration in the blood, kinetic parameters of the compound in blood were calculated by OLINDA/EXM 1.0. Furthermore, by using [^111In]-(compound A), from the organ distribution obtained by imaging, the absorbed dose of each organ obtained in a case where the compound is administered to a human being was calculated using OLINDA/EXM 1.0. [^111In]-(compound A) (98 MBq/9.3 μg) was administered to a crab-eating macaque (Hamri Co., Ltd., males, 3-year-old, 3.4 kg) under anesthesia. After the administration, blood was collected over time, and imaging was performed using a gamma camera. The blood was collected 10, 30, and 60 minutes after the administration and 2, 4, 5, 6, 24, 48, 72, and 144 hours after the administration. Regarding the imaging, after 1, 2, 4, 6, 24, 48, 72, and 144 hours, planar imaging was performed using a gamma camera (Symbia, Siemens Healthcare GmbH). Regarding the anesthesia, the animal was anesthetized with ketamine at 20 mg/kg before the administration of [^111In]-(compound A) and kept anesthetized until the end of imaging, which was continued for 6 hours after the administration, by inhalation anesthesia (isofluran 2 to 3%, 5 to 8 L/min). After 24 hours, ketamine (20 mg/kg) and xylazine (2 mg/kg) were administered to perform blood collection and imaging.
(§3) Furthermore, by using exposure dose analysis software OLINDA/EXM 1.0, the absorbed dose in a human being was simulated using each of the labeled compounds, and the results are shown below.

[5] = tested on: T98G cell (human glioblastoma); assay: Therapeutic test on T98G subcutaneous transplantation model; type: in vivo, mice (Balb/c Slc-nu/nu); settings: 1 time; for Number of animals showing regression: 6 animals; for Inhibition rate: 13 days after administration; for Tumor volume 13 days after administration / Tumor volume At the beginning of administration: Mean ± SD
Procedure: Test Example 8 Therapeutic Test on T98G Subcutaneous Transplantation Model Using [^90Y]-(Compound A)
After 77 days, at a point in time when the tumor volume reached 300 to 1,200 mm^3, the mice were grouped. […] The evaluation values were calculated by the same method as in Test Example 7, and the antitumor activity was evaluated.

[6] = Monkey blood kinetics and planar imaging; type: in vivo, crab-eating macaque
Procedure: Test Example 9 Imaging of Monkey by Using [^111In]-(Compound A)
as §2
The kinetic parameters in blood are also shown below.
as §3

SMILES: Cc1cc(OCCCC(=O)NCCNC(=O)[C@H](CS(=O)(=O)O)NC(=O)CC[C@H](C(=O)[O-])N2CCN(CC(=O)[O-])CCN(CC(=O)[O-])CC2)cc(C)c1S(=O)(=O)N[C@@H](CNC(=O)CCCCc1ccc2c(n1)NCCC2)C(=O)O.[67Ga+3] [[^67Ga]-(compound B)]
- radiochemical purity immediately after preparation and after 5.5 hours at room temperature ([1]; 5.5 hours): ≥ 95%

SMILES: Cc1cc(OCCCC(=O)NCCNC(=O)[C@H](CS(=O)(=O)O)NC(=O)CC[C@H](C(=O)O)N2CCN(CC(=O)[O-])CCN(CC(=O)[O-])CC2)cc(C)c1S(=O)(=O)N[C@@H](CNC(=O)CCCCc1ccc2c(n1)NCCC2)C(=O)O.[64Cu+2] [[^64Cu]-(compound B)]
- radiochemical purity immediately after preparation and after 24 hours at room temperature [1]: ≥ 90%
- Radioactivity concentration in tumor After 4 hours [2]: 11.19 % ID/g
- Radioactivity concentration in tumor After 24 hours [2]: 8.53 % ID/g

SMILES: Cc1cc(OCCCC(=O)NCCNC(=O)C(CS(=O)(=O)O)NC(=O)CN2CCN(CC(=O)[O-])CCN(CC(=O)[O-])CCN(CC(=O)[O-])CC2)cc(C)c1S(=O)(=O)NC(CNC(=O)CCCCc1ccc2c(n1)NCCC2)C(=O)O.[90Y+3] (stereo not shown) [[^90Y]-(compound A)]
- Number of animals showing regression ([3]; 14.8 MBq): 2
- Inhibition rate ([3]; 14.8 MBq): 95%
- Tumor volume 16 days after administration ([3]; 14.8 MBq): 429 ± 188 mm^3
- Tumor volume At the beginning of administration ([3]; 14.8 MBq): 351 ± 72 mm^3
- Number of animals showing regression ([3]; 22.2 MBq): 2
- Inhibition rate ([3]; 22.2 MBq): 97%
- Tumor volume 16 days after administration ([3]; 22.2 MBq): 386 ± 142 mm^3
- Tumor volume At the beginning of administration ([3]; 22.2 MBq): 343 ± 88 mm^3
- radiochemical purity immediately after preparation and after 24 hours at room temperature [1]: ≥ 95%
- Absorbed dose Brain [4]: 1.96 mGy/MBq
- Absorbed dose Kidney [4]: 14.7 mGy/MBq
- Absorbed dose Liver [4]: 1.12 mGy/MBq
- Absorbed dose Lung [4]: 1.35 mGy/MBq
- Absorbed dose Red marrow [4]: 0.06 mGy/MBq
- Absorbed dose Small intestine [4]: 0.87 mGy/MBq
- Absorbed dose Whole body [4]: 0.27 mGy/MBq
- Number of animals showing regression ([5]; 22.2 MBq): 1
- Inhibition rate ([5]; 22.2 MBq): 82%
- Tumor volume 13 days after administration ([5]; 22.2 MBq): 882 ± 399 mm^3
- Tumor volume At the beginning of administration ([5]; 22.2 MBq): 755 ± 293 mm^3
- Number of animals showing regression ([5]; 29.6 MBq): 3
- Inhibition rate ([5]; 29.6 MBq): 97%
- Tumor volume 13 days after administration ([5]; 29.6 MBq): 755 ± 313 mm^3
- Tumor volume At the beginning of administration ([5]; 29.6 MBq): 736 ± 264 mm^3
- Radioactivity concentration in tumor After 4 hours [2]: 12.52 % ID/g
- Radioactivity concentration in tumor After 24 hours [2]: 15.29 % ID/g

SMILES: Cc1cc(OCCCC(=O)NCCNC(=O)[C@H](CS(=O)(=O)O)NC(=O)CN2CCN(CC(=O)[O-])CCN(CC(=O)[O-])CCN(CC(=O)[O-])CC2)cc(C)c1S(=O)(=O)N[C@@H](CNC(=O)CCCCc1ccc2c(n1)NCCC2)C(=O)O.[177Lu+3] [[^177Lu]-(compound A)]
- radiochemical purity immediately after preparation and after 3 hours at room temperature ([1]; 3 hours): ≥ 95%

SMILES: Cc1cc(OCCCC(=O)NCCNC(=O)[C@H](CS(=O)(=O)O)NC(=O)CN2CCN(CC(=O)[O-])CCN(CC(=O)[O-])CCN(CC(=O)[O-])CC2)cc(C)c1S(=O)(=O)N[C@@H](CNC(=O)CCCCc1ccc2c(n1)NCCC2)C(=O)O.[67Ga+3] [[^67Ga]-(compound A)]
- radiochemical purity immediately after preparation and after 3.5 hours at room temperature ([1]; 3.5 hours): ≥ 95%

SMILES: Cc1cc(OCCCC(=O)NCCNC(=O)C(CS(=O)(=O)O)NC(=O)CN2CCN(CC(=O)[O-])CCN(CC(=O)[O-])CCN(CC(=O)[O-])CC2)cc(C)c1S(=O)(=O)NC(CNC(=O)CCCCc1ccc2c(n1)NCCC2)C(=O)O.[111In+3] (stereo not shown) [[^111In]-(compound A)]
- AUC ([6]; blood, 98 MBq/9.3 μg): 0.22 % ID · h/mL
- CL ([6]; blood, 98 MBq/9.3 μg): 130.2 mL/h/kg
- Cmax ([6]; blood, 98 MBq/9.3 μg): 0.018 % ID/mL
- T½α ([6]; blood, 98 MBq/9.3 μg): 27.6 min
- T½β ([6]; blood, 98 MBq/9.3 μg): 19.3 h
- Vss ([6]; blood, 98 MBq/9.3 μg): 3.52 L/kg
- integration into the bladder and the gall bladder (planar imaging) ([6]; up to 6 hours after the administration): increased over time
- radiochemical purity immediately after preparation and after 24 hours at room temperature [1]: ≥ 95%
- Absorbed dose Brain [4]: 0.25 mGy/MBq
- Absorbed dose Kidney [4]: 1.19 mGy/MBq
- Absorbed dose Liver [4]: 0.19 mGy/MBq
- Absorbed dose Lung [4]: 0.12 mGy/MBq
- Absorbed dose Red marrow [4]: 0.05 mGy/MBq
- Absorbed dose Small intestine [4]: 0.05 mGy/MBq
- Absorbed dose Whole body [4]: 0.05 mGy/MBq
- Radioactivity concentration in tumor After 4 hours [2]: 11.10 % ID/g
- Radioactivity concentration in tumor After 24 hours [2]: 9.62 % ID/g

Reference: US20240108607A1, “METHOD FOR MANUFACTURING NOVEL NITROGEN-CONTAINING COMPOUND OR SALT THEREOF AND MANUFACTURING INTERMEDIATE OF NOVEL NITROGEN-CONTAINING COMPOUND OR SALT THEREOF” (FUJIFILM Corporation, priority 2015, published 2024)
